Source: the supplement of paper PMC12420376

Experiments:
KURAMOCHI = experiment: drug sensitivity score (DSS2) on cancer cell count; higher = more sensitive; extreme values may be limits of the assay; details: 72 h
Method in brief: (§1)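 Ovarian cancer cells were cultured either alone or directly mixed 1:1 with lung or skin fibroblasts and plated onto 384-well plates acoustically pre-spotted with 528 approved and investigational compounds at 5 concentrations for 72 h of treatment. After fixation, cells were immunostained for CK8/18 with Hoechst and imaged at 10× across 4 fields to count cancer cells. Responses were fitted with 4-parameter logistic curves, and from these fits a drug sensitivity score was derived in Breeze, with screen quality assessed by Z'.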

OVCAR8 = experiment: as above; details: 72 h
Method in brief: as §1

[1] = co-cultured fibroblast: BJHTERT
[2] = co-cultured fibroblast: none (monoculture)

Compound	drug sensitivity score (KURAMOCHI; [1]) [DSS]	drug sensitivity score (KURAMOCHI; co-cultured fibroblast: WI38) [DSS]	drug sensitivity score (KURAMOCHI; [2]) [DSS]	drug sensitivity score (OVCAR8; [1]) [DSS]	drug sensitivity score (OVCAR8; co-cultured fibroblast: WI38) [DSS]	drug sensitivity score (OVCAR8; [2]) [DSS]
CCNC(=O)C[C@@H]1N=C(c2ccc(Cl)cc2)c2cc(OC)ccc2-n2c(C)nnc21 [Molibresib]	6.5	9.9	6.7	12.2	5.8	13.6
N#CCNC(=O)c1ccc(-c2ccnc(Nc3ccc(N4CCOCC4)cc3)n2)cc1 [Momelotinib]	7.5	10.1	7.6	11.3	10.9	10.1
CC1(C)CNc2cc(NC(=O)c3cccnc3NCc3ccncc3)ccc21 [Motesanib]	0.3	0.2	0	0	1	2
CCCN(CCC)C(=O)C1=Cc2ccc(-c3ccc(C(=O)N4CCCC4)cc3)cc2N=C(N)C1 [Motolimod]	1.3	0	1	0	0	2.4
FC(F)(F)c1ccc(/C=C/c2nc(COc3ccc(CCCCn4ccnn4)cc3)co2)cc1 [Mubritinib]	5.6	0	0	16.9	0	5.5
Cc1cc(OCc2nnc(SC3CCCC3)n2-c2cccnc2)ccc1-c1ccc(S(C)(=O)=O)cc1 [NMS-873]	9	9	8.9	5.8	4.7	10.3
COc1ccc(-c2ccc3ncc4c(c3c2)n(-c2ccc(N3CCNCC3)c(C(F)(F)F)c2)c(=O)n4C)cn1 [NVP-BGT226]	18.2	19.5	18.3	19.5	12	21.7
Cc1ccc(C(=O)Nc2cccc(C(F)(F)F)c2)cc1Nc1nc(-c2cccnc2)nc2c1cnn2C [NVP-BHG712]	5.8	6.7	8.9	0	6.8	7.5
COc1cc2c(cc1OC(C)C)[C@H](c1ccc(Cl)cc1)N(c1ccc(N(C)C[C@H]3CC[C@H](N4CCN(C)C(=O)C4)CC3)cc1)C(=O)C2 [NVP-CGM097]	7.7	3.4	5.4	10.1	11.1	3.5
CN[C@@H](C)C(=O)N[C@H](C(=O)N1CCC[C@H]1c1nc(C(=O)c2ccc(F)cc2)cs1)C1CCCCC1 [NVP-LCL161]	4	1.9	2.5	34.7	27.7	23.2
Cn1c(Nc2ccc(C(F)(F)F)cc2)nc2cc(Oc3ccnc(-c4ncc(C(F)(F)F)[nH]4)c3)ccc21 [NVP-RAF265]	2.2	0.8	7.6	2.2	0	3.2
CC1(C)CCC(c2ccc(Cl)cc2)=C(CN2CCN(c3ccc(C(=O)NS(=O)(=O)c4ccc(N[C@H](CCN5CCOCC5)CSc5ccccc5)c(S(=O)(=O)C(F)(F)F)c4)cc3)CC2)C1 [Navitoclax]	2.4	3.1	1.1	7.5	0	0.3
CN1C(=O)N[C@H](Cc2c[nH]c3c(Cl)cccc23)C1=O [Necrostatin 2]	0	0	0	0	0	0
O=c1ncn2nc(Sc3ccc(F)cc3F)ccc2c1-c1c(Cl)cccc1Cl [Neflamapimod]	9.1	0.7	14.9	0	0	0.3
COc1nc(N)nc2c1ncn2[C@@H]1O[C@H](CO)[C@@H](O)[C@@H]1O [Nelarabine]	0	0	0	1	3.4	0.3
CCOc1cc2ncc(C#N)c(Nc3ccc(OCc4ccccn4)c(Cl)c3)c2cc1NC(=O)/C=C/CN(C)C [Neratinib]	9	3.6	1.4	7	3	6
Cc1cn(-c2cc(NC(=O)c3ccc(C)c(Nc4nccc(-c5cccnc5)n4)c3)cc(C(F)(F)F)c2)cn1 [Nilotinib]	0	8	9.8	0	11	3
CC1(C)NC(=O)N(c2ccc([N+](=O)[O-])c(C(F)(F)F)c2)C1=O [Nilutamide]	0	3.2	14.5	0	0	0
COC(=O)c1ccc2c(c1)NC(=O)/C2=C(\Nc1ccc(N(C)C(=O)CN2CCN(C)CC2)cc1)c1ccccc1 [Nintedanib]	8.2	2.7	4.6	9.8	4.6	7.9

Compound	drug sensitivity score (KURAMOCHI; [1]) [DSS]	drug sensitivity score (KURAMOCHI; co-cultured fibroblast: WI38) [DSS]	drug sensitivity score (KURAMOCHI; [2]) [DSS]	drug sensitivity score (OVCAR8; [1]) [DSS]	drug sensitivity score (OVCAR8; co-cultured fibroblast: WI38) [DSS]	drug sensitivity score (OVCAR8; [2]) [DSS]
NC(=O)c1cccc2cn(-c3ccc([C@@H]4CCCNC4)cc3)nc12 [Niraparib]	5.8	6.8	5.1	14.9	8.1	9
CC(O)c1cc(C(=O)N[C@@H](C)Cn2ccc(-c3ccc(C#N)c(Cl)c3)n2)n[nH]1 (stereo partly drawn) [ODM-201]	1.3	0	3.7	0.5	0	0
CC(=O)c1cnc2ccc(-c3cc(Cl)c(O)c(Cl)c3)nc2c1N[C@H]1CC[C@H](CN(C)C)CC1 [OTS167]	14.9	13.5	11.7	20.6	16.1	19.2
O=C(c1cc(Cc2n[nH]c(=O)c3ccccc23)ccc1F)N1CCN(C(=O)C2CC2)CC1 [Olaparib]	4.6	7.3	11.4	12.5	6.9	9
C=CC(=O)Nc1cccc(Oc2nc(Nc3ccc(N4CCN(C)CC4)cc3)nc3ccsc23)c1 [Olmutinib]	2.1	2.7	0	0	0	0
COC(=O)C[C@](O)(CCCC(C)(C)O)C(=O)O[C@@H]1C(OC)=C[C@]23CCCN2CCc2cc4c(cc2[C@H]13)OCO4 [Omacetaxine]	23.8	24.5	30.6	29.3	30.1	29.8
CC1(C)CC[C@]2(NC(=O)C(C)(F)F)CC[C@]3(C)[C@H](C(=O)C=C4[C@@]5(C)C=C(C#N)C(=O)C(C)(C)[C@@H]5CC[C@]43C)[C@@H]2C1 [Omaveloxolone]	17.2	17.8	20.1	7	20	21.5
COc1ncc(-c2ccc3nccc(-c4ccnnc4)c3c2)cc1NS(=O)(=O)c1ccc(F)cc1F [Omipalisib]	17.1	17.9	12.1	8.9	6.5	13
CC(C)c1cc(C(=O)N2Cc3ccc(CN4CCN(C)CC4)cc3C2)c(O)cc1O [Onalespib]	13	14.6	14.9	17.4	18.5	23.5
COC[C@H](NC(=O)c1cnc(C)s1)C(=O)N[C@@H](COC)C(=O)N[C@@H](Cc1ccccc1)C(=O)[C@@]1(C)CO1 [Oprozomib]	15.7	15.1	12.6	17.7	12.7	10.8
CNC(=O)c1ccc2cc([C@@]3(O)CCn4cncc43)ccc2c1 [Orteronel]	0	0	0.5	0	0.3	0
C=CC(=O)Nc1cc(Nc2nccc(-c3cn(C)c4ccccc34)n2)c(OC)cc1N(C)CCN(C)C [Osimertinib]	10.7	6.8	10.7	6.8	0.6	3.7
O=C(O)C(=O)O.[NH-][C@@H]1CCCC[C@H]1[NH-].[Pt+2] [Oxaliplatin]	9.3	16	18.1	13.9	19.6	18.2
C=CCc1cccc(/C=N/NC(=O)CN2CCN(Cc3ccccc3)CC2)c1O [PAC-1]	2.7	3.3	4.9	7.4	1.5	4.9
O=C(Nc1cccnc1)N1CCC(Cc2cccc(Oc3ccc(C(F)(F)F)cn3)c2)CC1 [PF-3845]	0.5	0	0	0	0	1.9
CN1CCN(c2cc(C(=O)Nc3ccc4c(c3)-c3c(c(C(N)=O)nn3-c3ccc(F)cc3)CC4)c(Cl)cn2)CC1 [PHA 408]	5.8	1.9	1.6	0.5	8.6	4.8
O=C(Nc1cc(Cl)cc2c1[nH]c1cnccc12)c1cccnc1 [PS-1145]	0.6	3.2	2.1	0	0	1.8
COc1cc(Br)c(Nc2nc(-c3c(C)nc4ncccn34)cs2)c(Br)c1 [PTC-209]	2.4	3.6	7.9	9.1	3.1	6.9
CC(=O)O[C@H]1C(=O)[C@@]2(C)[C@H]([C@H](OC(=O)c3ccccc3)[C@]3(O)C[C@H](OC(=O)[C@H](O)[C@@H](NC(=O)c4ccccc4)c4ccccc4)C(C)=C1C3(C)C)[C@]1(OC(C)=O)CO[C@@H]1C[C@@H]2O [Paclitaxel]	23.2	24.5	16.1	29.6	30.9	24
